# From ChEMBL document CHEMBL4052829, “Identification of a Novel Hybridization from Isosorbide 5-Mononitrate and Bardoxolone Methyl with Dual Activities of Pulmonary Vasodilation and Vascular Remodeling Inhibition on Pulmonary Arterial Hypertension Rats” (J Med Chem, 2018)
# Activity calls are given as the source filed them. The calls are words filed in the database; no cut-off is given here.
# Legend:
# [1] = system: Rattus norvegicus; experiment: Pulmonary vasodilatory effect in MCT-induced Sprague-Dawley rat pulmonary arterial hypertension model assessed as weight ratio of right ventricle to left ventricle and septum at 0.78 ug/kg, inhaled daily for 28 days (reference value: 0.4796 +/- 0.030); type: functional
# [2] = system: Rattus norvegicus; experiment: Pulmonary vasodilatory effect in MCT-induced Sprague-Dawley rat pulmonary arterial hypertension model assessed as mean pulmonary artery pressure at 0.78 ug/kg, inhaled daily for 28 days by polygraph method (reference value: 30.63 +/- 1.16 mmHg); type: functional
# [3] = system: Rattus norvegicus; experiment: Pulmonary vasodilatory effect in MCT-induced Sprague-Dawley rat pulmonary arterial hypertension model assessed as mean pulmonary artery pressure at 0.78 ug/kg, inhaled daily for 28 days co-administered with CDDO-Me by polygraph method (reference value: 30.63 +/- 1.16 mmHg); type: functional
# [4] = system: Rattus norvegicus; experiment: Pulmonary vasodilatory effect in MCT-induced Sprague-Dawley rat pulmonary arterial hypertension model assessed as right ventricular systolic pressure at 0.78 ug/kg, inhaled daily for 28 days co-administered with CDDO-Me by polygraph method (reference value: 56.09 +/- 3.24 mmHg); type: functional
# [5] = system: Rattus norvegicus; experiment: Pulmonary vasodilatory effect in MCT-induced Sprague-Dawley rat pulmonary arterial hypertension model assessed as right ventricular systolic pressure at 0.78 ug/kg, inhaled daily for 28 days by polygraph method (reference value: 56.09 +/- 3.24 mmHg); type: functional
# [6] = system: Rattus norvegicus; experiment: Pulmonary vasodilatory effect in MCT-induced Sprague-Dawley rat pulmonary arterial hypertension model assessed as weight ratio of right ventricle to left ventricle and septum at 0.78 ug/kg, inhaled daily for 28 days co-administered with CDDO-Me (reference value: 0.4796 +/- 0.030); type: functional
# [7] = Drug uptake in Sprague-Dawley rat lung at 1 mg/ml administered in trachea after 360 mins by LC-MS/MS analysis; type: ADME, tissue-based; settings: inhaled or intranasal, read-out: Drug uptake
# [8] = system: Rattus norvegicus; experiment: Pulmonary vasodilatory effect in MCT-induced Sprague-Dawley rat pulmonary arterial hypertension model assessed as mean pulmonary artery pressure at 2.1 ug/kg, inhaled daily for 28 days co-administered with ISMN by polygraph method (reference value: 30.63 +/- 1.16 mmHg); type: functional
# [9] = system: Rattus norvegicus; experiment: Pulmonary vasodilatory effect in MCT-induced Sprague-Dawley rat pulmonary arterial hypertension model assessed as mean pulmonary artery pressure at 2.1 ug/kg, inhaled daily for 28 days by polygraph method (reference value: 30.63 +/- 1.16 mmHg); type: functional
# [10] = system: Rattus norvegicus; experiment: Pulmonary vasodilatory effect in MCT-induced Sprague-Dawley rat pulmonary arterial hypertension model assessed as weight ratio of right ventricle to left ventricle and septum at 2.1 ug/kg, inhaled daily for 28 days co-administered with ISMN (reference value: 0.4796 +/- 0.030); type: functional
# [11] = system: Rattus norvegicus; experiment: Pulmonary vasodilatory effect in MCT-induced Sprague-Dawley rat pulmonary arterial hypertension model assessed as right ventricular systolic pressure at 2.1 ug/kg, inhaled daily for 28 days co-administered with ISMN by polygraph method (reference value: 56.09 +/- 3.24 mmHg); type: functional
# [12] = system: Rattus norvegicus; experiment: Pulmonary vasodilatory effect in MCT-induced Sprague-Dawley rat pulmonary arterial hypertension model assessed as weight ratio of right ventricle to left ventricle and septum at 2.1 ug/kg, inhaled daily for 28 days (reference value: 0.4796 +/- 0.030); type: functional
# [13] = system: Plasma; experiment: Drug level in Sprague-Dawley rat plasma treated with CDDO-NO at 1 mg/ml administered in trachea after 15 to 720 mins by LC-MS/MS analysis; type: ADME, cell-free; settings: inhaled_or_intranasal
# [14] = Drug uptake in Sprague-Dawley rat lung at 1 mg/ml administered in trachea after 60 mins by LC-MS/MS analysis; type: ADME, tissue-based; settings: inhaled or intranasal, read-out: Drug uptake
# [15] = system: Rattus norvegicus; experiment: Pulmonary vasodilatory effect in MCT-induced Sprague-Dawley rat pulmonary arterial hypertension model assessed as right ventricular systolic pressure at 2.1 ug/kg, inhaled daily for 28 days by polygraph method (reference value: 56.09 +/- 3.24 mmHg); type: functional
# [16] = (§1) Drug uptake in Sprague-Dawley rat lung at 1 mg/ml administered in trachea after 180 mins by LC-MS/MS analysis; type: ADME; settings: Sprague-Dawley, lung, inhaled or intranasal, 1 mg/ml, read-out: Drug uptake
# [17] = system: Lung; experiment: as §1; type: ADME; settings: in vivo, inhaled_or_intranasal, 3 h, BLD = below limit of detection
# [18] = system: Lung; experiment: Drug level in Sprague-Dawley rat lung treated with CDDO-NO at 1 mg/ml administered in trachea after 90 to 720 mins by LC-MS/MS analysis; type: ADME, tissue-based; settings: in vivo, inhaled_or_intranasal
# [19] = system: Lung; experiment: Drug metabolism in Sprague-Dawley rat lung assessed as formation of CDDO-Me at 1 mg/ml administered in trachea after 90 mins by LC-MS/MS analysis; type: ADME, tissue-based; settings: in vivo, inhaled_or_intranasal, 1.5 h
# [20] = system: Rattus norvegicus; experiment: Inhibition of vascular remodeling in MCT-induced Sprague-Dawley rat pulmonary arterial hypertension model assessed as decrease in MCT-induced TGF-beta expression in lung at 3 ug/kg, inhaled daily for 28 days by Western blot method; type: functional
# [21] = system: Rattus norvegicus; experiment: Inhibition of vascular remodeling in MCT-induced Sprague-Dawley rat pulmonary arterial hypertension model assessed as decrease in MCT-induced perivascular fibrosis at 3 ug/kg, inhaled daily for 28 days by masson's trichrome staining-based assay; type: functional
# [22] = system: Rattus norvegicus; experiment: Inhibition of vascular remodeling in MCT-induced Sprague-Dawley rat pulmonary arterial hypertension model assessed as reduction of MCT-induced medial thickness of pulmonary artery at 3 ug/kg, inhaled daily for 28 days by hematoxylin and eosin staining-based assay; type: functional
# [23] = system: Plasma; experiment: Drug metabolism in Sprague-Dawley rat plasma assessed as formation of CDDO-Me at 1 mg/ml administered in trachea after 15 to 720 mins by LC-MS/MS analysis; type: ADME, cell-free; settings: inhaled_or_intranasal
# [24] = system: Rattus norvegicus; experiment: Inhibition of cardiomyocyte hypertrophy in MCT-induced Sprague-Dawley rat pulmonary arterial hypertension model at 3 ug/kg, inhaled daily for 28 days by hematoxylin and eosin staining-based assay; type: functional
# [25] = system: Rattus norvegicus; experiment: Inhibition of vascular remodeling in MCT-induced Sprague-Dawley rat pulmonary arterial hypertension model assessed as decrease in MCT-induced collagen-1 expression in lung at 3 ug/kg, inhaled daily for 28 days by Western blot method; type: functional
# [26] = system: Rattus norvegicus; experiment: Pulmonary vasodilatory effect in MCT-induced Sprague-Dawley rat pulmonary arterial hypertension model assessed as right ventricular systolic pressure at 3 ug/kg, inhaled daily for 28 days by polygraph method (reference value: 56.09 +/- 3.24 mmHg); type: functional
# [27] = system: Rattus norvegicus; experiment: Inhibition of vascular remodeling in MCT-induced Sprague-Dawley rat pulmonary arterial hypertension model assessed as decrease in MCT-induced increment of PCNA positive cells in lung at 3 ug/kg, inhaled daily for 28 days by immunohistochemical method; type: functional
# [28] = system: Rattus norvegicus; experiment: Pulmonary vasodilatory effect in MCT-induced Sprague-Dawley rat pulmonary arterial hypertension model assessed as reversal of MCT-induced nitric oxide reduction in plasma at 3 ug/kg, inhaled daily for 28 days by Griess assay; type: functional
# [29] = system: Rattus norvegicus; experiment: Inhibition of vascular remodeling in MCT-induced Sprague-Dawley rat pulmonary arterial hypertension model assessed as decrease in MCT-induced macrophage infiltration in perivascular tissue at 3 ug/kg, inhaled daily for 28 days by immunohistochemical method; type: functional
# [30] = biological target: T1, Nuclear factor erythroid 2-related factor 2 (Rattus norvegicus) (UniProt O54968); experiment: Induction of Nrf2 translocation to nucleus of rat pulmonary artery endothelial cells at 1 uM after 24 hrs by immunofluorescence assay
# T1 sequence (whole entry): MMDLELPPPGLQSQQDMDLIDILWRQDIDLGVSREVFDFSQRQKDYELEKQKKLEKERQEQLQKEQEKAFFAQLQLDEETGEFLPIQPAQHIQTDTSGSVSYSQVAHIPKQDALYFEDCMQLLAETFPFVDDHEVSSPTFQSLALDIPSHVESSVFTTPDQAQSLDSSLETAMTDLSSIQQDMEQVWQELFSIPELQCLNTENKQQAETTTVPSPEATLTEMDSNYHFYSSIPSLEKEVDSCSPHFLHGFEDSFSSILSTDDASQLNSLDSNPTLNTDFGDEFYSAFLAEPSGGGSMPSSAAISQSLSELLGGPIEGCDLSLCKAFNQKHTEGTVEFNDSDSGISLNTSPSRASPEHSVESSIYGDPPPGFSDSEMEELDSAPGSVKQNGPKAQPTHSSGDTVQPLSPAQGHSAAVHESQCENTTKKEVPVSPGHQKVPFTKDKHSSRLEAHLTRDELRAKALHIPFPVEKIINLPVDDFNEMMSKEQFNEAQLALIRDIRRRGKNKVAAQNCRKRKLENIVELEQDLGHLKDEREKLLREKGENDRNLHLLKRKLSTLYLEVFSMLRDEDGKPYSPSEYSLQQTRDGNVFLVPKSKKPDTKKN
# [31] = system: Rattus norvegicus; experiment: Pulmonary vasodilatory effect in MCT-induced Sprague-Dawley rat pulmonary arterial hypertension model assessed as reversal of MCT-induced ET-1 elevation in plasma at 3 ug/kg, inhaled daily for 28 days by ELISA; type: functional
# [32] = system: Lung; experiment: Drug metabolism in Sprague-Dawley rat lung assessed as formation of CDDO-Me at 1 mg/ml administered in trachea after 12 hrs by LC-MS/MS analysis; type: ADME, tissue-based; settings: in vivo, inhaled_or_intranasal
# [33] = system: Rattus norvegicus; experiment: Inhibition of vascular remodeling in MCT-induced Sprague-Dawley rat pulmonary arterial hypertension model assessed as reduction of MCT-induced pulmonary vascular muscularization by measuring downregulation of alpha-SMA levels at 3 ug/kg, inhaled daily for 28 days by immunohistochemical method; type: functional
# [34] = system: Rattus norvegicus; experiment: Inhibition of oxidative response in lung of MCT-induced Sprague-Dawley rat pulmonary arterial hypertension model assessed as decrease in ratio of NOX4 positive cells and NOX4 expression at 3 ug/kg, inhaled daily for 28 days by immunohistochemical method; type: functional
# [35] = system: Rattus norvegicus; experiment: Inhibition of vascular remodeling in MCT-induced Sprague-Dawley rat pulmonary arterial hypertension model assessed as downregulation of MCT-induced up-expression of alpha-SMA at 3 ug/kg, inhaled daily for 28 days by Western blot method; type: functional
# [36] = system: Rattus norvegicus; experiment: Inhibition of cardiac fibrosis in MCT-induced Sprague-Dawley rat pulmonary arterial hypertension model at 3 ug/kg, inhaled daily for 28 days by picro-sirius red staining-based assay; type: functional
# [37] = system: Rattus norvegicus; experiment: Pulmonary vasodilatory effect in MCT-induced Sprague-Dawley rat pulmonary arterial hypertension model assessed as mean pulmonary artery pressure at 3 ug/kg, inhaled daily for 28 days by polygraph method (reference value: 30.63 +/- 1.16 mmHg); type: functional
# [38] = system: Rattus norvegicus; experiment: Pulmonary vasodilatory effect in MCT-induced Sprague-Dawley rat pulmonary arterial hypertension model assessed as weight ratio of right ventricle to left ventricle and septum at 3 ug/kg, inhaled daily for 28 days (reference value: 0.4796 +/- 0.030); type: functional
# [39] = system: Rattus norvegicus; experiment: Inhibition of oxidative response in lung of MCT-induced Sprague-Dawley rat pulmonary arterial hypertension model assessed as decrease in ratio of NOX4 positive cells and NOX4 expression at 3 ug/kg, inhaled daily for 28 days by Western blot method; type: functional
smiles,measurement,setting,value
O=[N+]([O-])O[C@@H]1CO[C@H]2[C@@H]1OC[C@H]2O,Ratio,[1],0.4844
same,Activity,[2],25.11 mmHg
same,Activity,[3],27.3 mmHg
same,Activity,[4],60.12 mmHg
same,Activity,[5],60.76 mmHg
same,Ratio,[6],0.4898
COC(=O)[C@]12CCC(C)(C)C[C@H]1[C@H]1C(=O)C=C3[C@@]4(C)C=C(C#N)C(=O)C(C)(C)[C@@H]4CC[C@@]3(C)[C@]1(C)CC2 [BARDOXOLONE METHYL],concentration at 6 h,[7],3.4 ng/mL
same,Activity,[8],27.3 mmHg
same,Activity,[9],26.29 mmHg
same,Ratio,[10],0.4898
same,Activity,[11],60.12 mmHg
same,Ratio,[12],0.5123
same,Drug metabolism,[13],Metabolite_Detected
same,concentration at 1 h,[14],180 to 444 ng/mL
same,Activity,[15],61.24 mmHg
same,concentration at 3 h,[16],44.8 ng/mL
same,Drug uptake,[17],Bld
same,Drug metabolism,[18],Metabolite_Detected
COC(=O)[C@]12CCC(C)(C)C[C@H]1[C@H]1C(=O)C=C3[C@@]4(C)C(O[C@@H]5CO[C@H]6[C@@H]5OC[C@H]6O[N+](=O)[O-])C(C#N)=C(OC(C)=O)C(C)(C)[C@@H]4CC[C@@]3(C)[C@]1(C)CC2 (stereo not given in full),Drug metabolism,[19],78.5 ng/mL
same,inhibition,[20],Active
same,inhibition,[21],Active
same,inhibition,[22],Active
same,Drug metabolism,[23],Metabolite_Detected
same,inhibition,[24],Active
same,inhibition,[25],Active
same,Activity,[26],44.75 mmHg
same,inhibition,[27],Active
same,Activity,[28],Active
same,inhibition,[29],Active
same,Activity,[30],Active
same,Activity,[31],Active
same,Drug metabolism,[32],15.9 ng/mL
same,inhibition,[33],Active
same,inhibition,[34],Active
same,concentration at 1 h,[14],243 ng/mL
same,inhibition,[35],Active
same,inhibition,[36],Active
same,Activity,[37],20.72 mmHg
same,Ratio,[38],0.3656
same,inhibition,[39],Active
